Measured values as given in patent US20260055097A9, “NRF2 PROTEIN DEGRADERS” (Ganymede Oncology, Inc., priority 2022, published 2026).
Values belong to the compound of their own block, whether it stands above or below them.

Assays:
[1] = tested on: A549; assay: Cancer cell viability, A549 (CellTiter-Glo); assay type: cell-based; conditions: Homo sapiens, 72 h, A549 cells, 3 days, read-out: Cellular IC50 (μM) A549
Summary of the method: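 A549 and/or LK-2 lung carcinoma cells seeded overnight (20 K/mL A549; 35 K/mL LK-2), then exposed to compound for 3 days. Viability read as CellTiter-Glo luminescence after 15 min lysis; data fitted to curves.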

[2] = tested on: various cancer cell lines; assay: Cancer cell testing, inhibitory activity in various cancer cell lines (CellTiter-Glo, 72 hours); assay type: cell-based
Experimental: The inhibitory activity of representative Compounds of the Disclosure was tested in various cancer cell lines according to the following protocol.
Cells were harvested from flasks into cell culture media and cell numbers were counted. Cells were then diluted with culture medium to the desired density, and 40 μL of cell suspension were added into each well of a 384-well cell culture plate (Corning, #3764). Plates were covered with lids and placed at room temperature for 30 minutes without shaking, and then transferred into a 37° C. 5% CO2 incubator.
Cpd. Nos. 30 and 34 were dissolved in DMSO to form a 10 mM stock solution. Paclitaxel as the control compound was dissolved in DMSO to form a 0.33 mM stock solution. 45 μL of stock solution was transferred to a 384 pp-plate and 3-fold, 10-point dilutions were performed by transferring 15 μL of compound into 30 μL of DMSO using a TECAN (EVO200) liquid handler. Plates were spun at room temperature at 1,000 RPM for 1 minute, and shaken at a plate shaker for 2 minutes. […] of diluted compound were transferred from compound source plate into the cell plate. After compound treatment for 72 hours, CTG detection was performed for compound treatment plates as described in the “Detection” section.
CellTiter Glo reagents were thawed and equilibrated to room temperature before the experiment. Plates were removed from incubators and equilibrated at room temperature for 15 minutes. 40 μL of CellTiter-Glo reagent was added to each well to be detected at 1:1 to culture medium. Then, plates were placed at room temperature for 30 min followed by reading on Ensight.
Inhibition activity was calculated following the formula below:
[formula] • HC: 0.3% DMSO, LC: 1 μM Paclitaxel
IC50S were calculated by fitting the Curve using Xlfit (v5.3.1.3) according to the following equation: […]

[3] = HCC15, HCC-15, LUNG, KEAP1 p.G364C
[4] = HEC59, UTERINE/ENDOMETRIAL, NRF2 p.N329D
[5] = HEC151, UTERINE/ENDOMETRIAL, KEAP1 p.A34S, NRF2 p.L23GfsTer5
[6] = HEC-251, HEC251, UTERINE/ENDOMETRIAL, KEAP1 p.Q227R, NRF2 p.K516T
[7] = HEC-265, UTERINE/ENDOMETRIAL, KEAP1 p.R483C
[8] = HO1U1, HEAD & NECK, NRF2 p.E82D
[9] = Homo sapiens, A549, A549, LUNG, KEAP1 p.G333C
[10] = Homo sapiens, COR-L88, CORL88, LUNG, NRF2 p.Q26P
[11] = Homo sapiens, EBC-1, EBC1, LUNG, NRF2 p.D77V
[12] = Homo sapiens, HCC44, HCC44, UTERINE/ENDOMETRIAL, KEAP1 p.F211C
[13] = Homo sapiens, HCC95, HCC-95, LUNG, no KEAP1/NRF2 mutation listed
[14] = Homo sapiens, HEC-1-A, HEC1A, UTERINE/ENDOMETRIAL, KEAP1 p.Y33C, NRF2 G31R
[15] = Homo sapiens, HEC-1B, HEC1B, UTERINE/ENDOMETRIAL, NRF2 p.G31R
[16] = Homo sapiens, KYSE-70, KYSE70, ESOPHAGEAL, NRF2 p.W24C
[17] = Homo sapiens, KYSE-180, KYSE180, ESOPHAGEAL, NRF2 p.P278Q
[18] = Homo sapiens, KYSE-520, KYSE520, ESOPHAGEAL, NRF2 p.T80I
[19] = Homo sapiens, MES-SA, MESSA, UTERINE/ENDOMETRIAL, NRF2 p.E79K
[20] = Homo sapiens, MRC5, MRC-5, NORMAL LUNG FIBROBLAST
[21] = Homo sapiens, NCI-H23, NCI-H23, LUNG, KEAP1 p.Q193H
[22] = Homo sapiens, NCI-H358, NCI-H358, LUNG, no KEAP1/NRF2 mutation listed
[23] = Homo sapiens, NCI-H460, NCI-H460, LUNG, KEAP1 p.D236H
[24] = Homo sapiens, NCI-H1792, NCI-H1792, LUNG, KEAP1 p.G462W
[25] = Homo sapiens, NCI-H1944, NCI-H1944, LUNG, KEAP1 p.R320L
[26] = Homo sapiens, NCI-H2030, NCI-H2030, LUNG, KEAP1 p.V568F
[27] = Homo sapiens, NCI-H2122, NCI-H2122, LUNG, KEAP1 p.A170_R204del
[28] = Homo sapiens, NCI-H2126, NCI-H2126, LUNG, KEAP1 p.R320L
[29] = Homo sapiens, NCI-H2228, NCI-H2228, LUNG, NRF2 p.G31A
[30] = Homo sapiens, RL95-2, RL95-2, UTERINE/ENDOMETRIAL, KEAP1 p.R116W
[31] = Homo sapiens, SHP77, SHP-77, LUNG, KEAP1 p.D294Y
[32] = Homo sapiens, UMC-11, UMC11, LUNG, KEAP1 p.G571A
[33] = JHOC-5, UTERINE/ENDOMETRIAL, KEAP1 p.R483H
[34] = MORCPR, LUNG, KEAP1 p.K551SfsTer44
[35] = NCI-H322, NCI-H322, LUNG, KEAP1 p.R460S
[36] = NCI-H1435, NCI-H1435, LUNG, KEAP1 p.R413L
[37] = NCI-H1688, NCI-H1688, LUNG, KEAP1 p.G511S
[38] = NCI-H2066, NCI-H2066, LUNG, KEAP1 p.P361L
[39] = NCI-H2110, NCI-H2110, LUNG, KEAP1 p.G429C
[40] = NCI-H2172, NCI-H2172, LUNG, KEAP1 p.G430C
[41] = OE21, OE21, ESOPHAGEAL, NRF2 p.D318H
[42] = RERF-LC-Sq1, RERFLCSQ1, LUNG, NRF2 p.D29H
[43] = RMUG-S, UTERINE/ENDOMETRIAL, KEAP1 p.G603V
[44] = SW579, SW579, HEAD & NECK, NRF2 p.D77Y

- IC50 [1]: 0.01 µM
- IC50 [2, 3]: 4.1 nM
- IC50 [2, 4]: 2.8 nM
- IC50 [2, 5]: 4.8 nM
- IC50 [2, 6]: < 1.5 nM
- IC50 [2, 7]: 8.7 nM
- IC50 [2, 8]: 12.8 nM
- IC50 [2, 9]: 4.3 nM
- IC50 [2, 10]: < 1.5 nM
- IC50 [2, 11]: 11.3 nM
- IC50 [2, 12]: 397 nM
- IC50 [2, 13]: 302 nM
- IC50 [2, 14]: 2.9 nM
- IC50 [2, 15]: 31.9 nM
- IC50 [2, 16]: 8.8 nM
- IC50 [2, 17]: 4 nM
- IC50 [2, 18]: 1.7 nM
- IC50 [2, 19]: 4.7 nM
- IC50 [2, 21]: 126 nM
- IC50 [2, 22]: 11.6 nM
- IC50 [2, 23]: 15500 nM
- IC50 [2, 24]: 6.5 nM
- IC50 [2, 25]: 25.2 nM
- IC50 [2, 26]: 169 nM
- IC50 [2, 27]: 54.9 nM
- IC50 [2, 28]: 98.9 nM
- IC50 [2, 29]: 12.6 nM
- IC50 [2, 30]: 2.8 nM
- IC50 [2, 31]: 29.6 nM
- IC50 [2, 32]: 5.8 nM
- IC50 [2, 33]: 11.5 nM
- IC50 ([2]; LK-2, LUNG, NRF2 p.E79K): < 1.5 nM
- IC50 [2, 34]: 3.4 nM
- IC50 [2, 35]: 3.9 nM
- IC50 ([2]; NCI-H920, LUNG, KEAP1 p.G603V): 191 nM
- IC50 [2, 36]: 38 nM
- IC50 [2, 37]: < 2 nM
- IC50 [2, 38]: 4.4 nM
- IC50 [2, 39]: 5.1 nM
- IC50 [2, 40]: 5.9 nM
- IC50 [2, 41]: 156 nM
- IC50 [2, 42]: 12.6 nM
- IC50 [2, 43]: 21.5 nM
- IC50 ([2]; SNU2535, LUNG, NRF2 p.D29H): 8.9 nM
- IC50 [2, 44]: 6.7 nM
SMILES: Cc1sc(NC(=O)Cc2ccc(F)c(OCCOCCNc3ccc4c(c3)CN(C3CCC(=O)NC3=O)C4=O)c2)nc1-c1ccc2c(c1)CCN2C(=O)c1cncn1C (centres unmarked) [Cpd. No. 30, 2-(3-(2-(2-((2-(2,6-dioxopiperidin-3-yl)-1-oxoisoindolin-5-yl)amino)ethoxy)ethoxy)-4-fluorophenyl)-N-(5-methyl-4-(1-(1-methyl-1H-imidazole-5-carbonyl)indolin-5-yl)thiazol-2-yl)acetamide]
- IC50 [2, 20]: 12.5 nM

- IC50 [1]: 0.06 µM
- IC50 [2, 3]: 30.1 nM
- IC50 [2, 4]: 20.4 nM
- IC50 [2, 5]: 86.7 nM
- IC50 [2, 6]: 10.6 nM
- IC50 [2, 7]: 66.7 nM
- IC50 [2, 8]: 54.8 nM
- IC50 [2, 9]: 20.6 nM
- IC50 [2, 10]: 4.4 nM
- IC50 [2, 11]: 152 nM
- IC50 [2, 12]: > 30000 nM
- IC50 [2, 13]: > 30000 nM
- IC50 [2, 14]: 20.3 nM
- IC50 [2, 15]: > 30000 nM
- IC50 [2, 16]: 33.6 nM
- IC50 [2, 17]: 45.8 nM
- IC50 [2, 18]: 13.2 nM
- IC50 [2, 19]: 35.1 nM
- IC50 [2, 21]: > 30000 nM
- IC50 [2, 22]: 44.9 nM
- IC50 [2, 23]: > 30000 nM
- IC50 [2, 24]: 41.7 nM
- IC50 [2, 25]: 107 nM
- IC50 [2, 26]: 224 nM
- IC50 [2, 27]: > 30000 nM
- IC50 [2, 28]: > 30000 nM
- IC50 [2, 29]: 57.4 nM
- IC50 [2, 30]: 20.9 nM
- IC50 [2, 31]: 22.5 nM
- IC50 [2, 32]: 12.2 nM
- IC50 [2, 33]: 54.2 nM
- IC50 ([2]; LK-2, LUNG, NRF2 p.E79K): 9.4 nM
- IC50 [2, 34]: 33.2 nM
- IC50 [2, 35]: 23.9 nM
- IC50 ([2]; NCI-H920, LUNG, KEAP1 p.G603V): > 30000 nM
- IC50 [2, 36]: 150 nM
- IC50 [2, 37]: 13 nM
- IC50 [2, 38]: 15.9 nM
- IC50 [2, 39]: 42.1 nM
- IC50 [2, 40]: 14.2 nM
- IC50 [2, 41]: > 30000 nM
- IC50 [2, 42]: 85.6 nM
- IC50 [2, 43]: 18.1 nM
- IC50 ([2]; SNU2535, LUNG, NRF2 p.D29H): > 30000 nM
- IC50 [2, 44]: 73.1 nM
SMILES: Cc1sc(NC(=O)Cc2cccc(OCCOCCNc3cccc4c3C(=O)N(C3CCC(=O)NC3=O)C4=O)c2)nc1-c1ccc2c(c1)CCN2C(=O)C1CC1 (centres unmarked) [Cpd. No. 34, N-(4-(1-(cyclopropanecarbonyl)indolin-5-yl)-5-methylthiazol-2-yl)-2-(3-(2-(2-((2-(2,6-dioxopiperidin-3-yl)-1,3-dioxoisoindolin-4-yl)amino)ethoxy)ethoxy)phenyl) acetamide]
- IC50 [2, 20]: 35.4 nM
